From patent US11046675B2, “Substituted isoquionline derivatives as immunomudulators” (Bristol-Myers Squibb Company, priority 2017, dated 2021)
Read-outs that look alike come from different tables or passages of the source.

Target: PD-1/PD-L1 (Homo sapiens (Human), UniProt Q9NZQ7)
Assay: PD-1/PD-L1 Homogenous Time-Resolved Fluorescence (HTRF) binding assay
Settings: PD-L1-His 10 nM, PD-1-Ig 20 nM, read-out: IC50 (μM) (Range or value)
From the text: The ability of the compounds of formula (I) to bind to PD-L1 was investigated using a PD-1/PD-L1 Homogenous Time-Resolved Fluorescence (HTRF) binding assay.
Homogenous Time-Resolved Fluorescence (HTRF) Binding Assay
The interaction of PD-1 and PD-L1 can be assessed using soluble, purified preparations of the extracellular domains of the two proteins. The PD-1 and PD-L1 protein extracellular domains were expressed as fusion proteins with detection tags, for PD-1, the tag was the Fc portion of Immunoglobulin (PD-1-Ig) and for PD-L1 it was the 6 histidine motif (PD-L1-His). All binding studies were performed in an HTRF assay buffer consisting of dPBS supplemented with 0.1% […] bovine serum albumin and 0.05% (v/v) Tween-20. For the h/PD-L1-His binding assay, inhibitors were pre-incubated with PD-L1-His (10 nM final) for 15m in 4 μl of assay buffer, followed by addition of PD-1-Ig (20 nM final) in 1 μl of assay buffer and further incubation for 15 m. HTRF detection was achieved using europium crypate-labeled anti-Ig (1 nM final) and allophycocyanin (APC) labeled anti-His (20 nM final). Antibodies were diluted in HTRF detection buffer and 5 μl was dispensed on top of the binding reaction. The reaction mixture was allowed to equilibrate for 60 minutes and the resulting signal (665 nm/620 nm ratio) was obtained using an EnVision fluorometer. Additional binding assays were established between the human proteins PD-1-Ig/PD-L2-His (20 & 2 nM, respectively) and CD80-His/PD-L1-Ig (100 & 10 nM, respectively).
Recombinant Proteins: Human PD-1 (25-167) with a C-terminal human Fc domain of immunoglobulin G (Ig) epitope tag [hPD-1 (25-167)-3S-IG] and human PD-L1 (18-239) with a C-terminal His epitope tag [hPD-L1(18-239)-TVMV-His] were expressed in HEK293T cells and purified sequentially by ProteinA affinity chromatography and size exclusion chromatography. Human PD-L2-His and CD80-His was obtained through commercial sources.

Chain of PD-1/PD-L1 (Q9NZQ7 other isoform, or with tags, fused parts or gaps): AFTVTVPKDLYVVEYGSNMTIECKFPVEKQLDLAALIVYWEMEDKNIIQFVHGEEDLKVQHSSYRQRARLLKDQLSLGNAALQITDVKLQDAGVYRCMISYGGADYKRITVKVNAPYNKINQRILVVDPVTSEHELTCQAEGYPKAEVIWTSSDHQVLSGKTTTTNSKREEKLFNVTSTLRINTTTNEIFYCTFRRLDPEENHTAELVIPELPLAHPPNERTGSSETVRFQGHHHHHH

Row | IC50 (reported as range class) [µM] | IC50 (reported as value) [µM] | Structure (SMILES)
1 | 0.002 to 0.015 |  | Cc1c(COc2cc3c(c(OCc4cncc(C#N)c4)c2)CN(CC(=O)O)CC3)cccc1-c1ccc2c(c1)OCCO2 [Example 1001, 2-(8-((5-cyanopyridin-3-yl)methoxy)-6-((3-(2,3-dihydrobenzo[b][1,4]dioxin-6-yl)-2-methylbenzyl)-oxy)-3,4-dihydroisoquinolin-2(1H)-yl)acetic acid]
2 | 0.051 to 1.5 |  | Cc1c(COc2cc(OCc3cncc(C#N)c3)cc3c2CN(CC(=O)O)CC3)cccc1-c1ccc2c(c1)OCCO2 [Example 1002, 2-(6-((5-cyanopyridin-3-yl)methoxy)-8-((3-(2,3-dihydrobenzo[b][1,4]-dioxin-6-yl)-2-methylbenzyl)oxy)-3,4-dihydroiso-quinolin-2(1H)-yl)acetic acid]
3 | 0.051 to 1.5 |  | Cc1c(COc2cc(O)c3c(c2)CCN(CC(=O)O)C3)cccc1-c1ccc2c(c1)OCCO2 [Example 1003, 2-(6-((3-(2,3-dihydrobenzo[b][1,4]dioxin-6-yl)-2-methylbenzyl)oxy)-8-hydroxy-3,4-dihydroisoquinolin-2(1H)-yl)acetic acid]
4 |  | 0.002 | Cc1c(COc2cc(OCc3cncc(C#N)c3)c3c(c2Cl)CCN(CC(=O)O)C3)cccc1-c1cccc(OCCCN2CC[C@@H](O)C2)c1C [Example 1006, (R)-2-(5-chloro-8-((5-cyanopyridin-3-yl)methoxy)-6-((3′-(3-(3-hydroxypyrrolidin-1-yl)propoxy)-2,2′-dimethyl-[1,1′-biphenyl]-3-yl)methoxy)-3,4-dihydroisoquinolin-2(1H)-yl)acetic acid]

More lines, now with the values behind:

Row | Structure (SMILES) | IC50 (reported as range class) [µM] | IC50 (reported as value) [µM]
5 | Cc1c(COc2ccc3c(c2)CN[C@@H](C(=O)O)C3)cccc1-c1ccc2c(c1)OCCO2 [Example 1004, (R)-7-((3-(2,3-dihydrobenzo[b][1,4]dioxin-6-yl)-2-methylbenzyl)oxy)-1,2,3,4-tetrahydroisoquinoline-3-carboxylic acid] | 1.51 to 10 | 
6 | Cc1c(COc2ccc3c(c2)CN[C@H](C(=O)O)C3)cccc1-c1ccc2c(c1)OCCO2 [Example 1005, (S)-7-((3-(2,3-dihydrobenzo[b][1,4]dioxin-6-yl)-2-methylbenzyl)oxy)-1,2,3,4-tetrahydroisoquinoline-3-carboxylic acid] |  | > 10
7 | COC(=O)c1cncc(COc2cc(OCc3cccc(-c4cccc(OCCCN5CC[C@@H](O)C5)c4C)c3C)c(Cl)c3c2CN(CC(=O)O)CC3)c1 [Example 1007, (R)-2-(5-chloro-6-((3′-(3-(3-hydroxypyrrolidin-1-yl)propoxy)-2,2′-dimethyl-[1,1′-biphenyl]-3-yl)methoxy)-8-((5-(methoxycarbonyl)pyridin-3-yl)methoxy)-3,4-dihydro-isoquinolin-2(1H)-yl)acetic acid] | 0.016 to 0.05 | 
8 | COC(=O)CN1CCc2c(Cl)c(OCc3cccc(-c4cccc(OCCCN5CC[C@@H](O)C5)c4C)c3C)cc(OCc3cncc(C(=O)OC)c3)c2C1 [Example 1008, methyl (R)-5-(((5-chloro-6-((3′-(3-(3-hydroxypyrrolidin-1-yl)propoxy)-2,2′-dimethyl-[1,1′-biphenyl]-3-yl)methoxy)-2-(2-methoxy-2-oxoethyl)-1,2,3,4-tetrahydroisoquinolin-8-yl)oxy)methyl)nicotinate] |  | > 10
